Measured values: patent publication US20230346820A1, “METHODS AND COMPOSITIONS FOR THE TREATMENT OF SARS-COV-2” (priority 2020, published 2023)
Counter-ions that a name gives are not always drawn. Like-named read-outs stand apart in the source and are kept apart here.

Assays:
[1] = human, oral; cited from earlier work
[2] = system: SARS-CoV-2
[3] = system: SARS-CoV-2; experiment: SARS-CoV-2 primary ALI HBEC model; type: cell-based; details: apical washes 72 hpi
Method: SARS-CoV-2 primary ALI HBEC model. Normal primary human bronchial epithelial cells (HBECs) (Lonza) were cultured in Millicell-96 cell culture insert plates with 1 μm PET filters (Sigma) at an air liquid interface for at least 4 weeks using PneumaCult™-ALI Medium (Stemcell Technologies). Briefly, the HBECs were first expanded in cell culture flasks before seeding 10,000 cells per well submerged in PneumaCult™-Ex Plus Medium. After 1 week, the cells were switched into PneumaCult™-ALI Medium and medium was removed from the apical surface. The air liquid interface was maintained, and the medium exchanged every 2-3 days for at least 4 weeks to allow for differentiation of the cells. Prior to infection, the apical surface was rinsed once with DPBS and compounds were added to the basolateral chamber. 20,000 PFU SARS-CoV-2 strain USA-WA1/2020 were added to the apical surface in 50 μL PBS and allowed to incubate for 2 h. The inoculum was then removed, and the cells rinsed once with DPBS. The medium was exchanged, and fresh compound added at 24 and 48 h post-infection. Apical washes were collected at 72 h post-infection by adding 100 μL DPBS to the apical surface for 15 minutes. RNA was isolated from the apical washes using the PureLink™ Pro 96 Viral RNA/DNA Purification Kit (Thermo Fisher) and analyzed for viral RNA levels by RT-qPCR using the SuperScript™ III Platinum™ One-Step qRT-PCR Kit (Thermo Fisher) and the 2019-nCoV N1 CDC Primers and Probe set (Integrated DNA Technologies). A standard curve was generated by isolating RNA from serial dilutions of the stock virus and used to determine the PFU equivalents/mL for each sample. The viral load reductions were then determined for each experimental compound treatment compared to the neutral DMSO control and plotted in log scale. Cytotoxicity was assessed by measuring LDH activity in the basolateral media using a Cytotoxicity Detection kit (LDH) (Sigma) following the manufacturer's instructions. […] Technical triplicates were run for both antiviral and cytotoxicity readouts. […]

[4] = system: HeLa-ACE2 cells; experiment: cells; type: cell-based, human; details: Homo sapiens, HeLa-ACE2, read-out: HeLa-ACE-2 EC50 [μM] (Geomeans, n ≥ 2)
[5] = system: SARS-CoV-2; experiment: microbe, parasite or virus in culture
[6] = in vitro; details: human
[7] = system: SARS-CoV-2; experiment: Checkerboard synergy study with remdesivir (ZIP model, synergyfinder); type: cell-based
[8] = system: SARS-CoV-2; experiment: Time of addition (TOA) assay in HeLa-ACE2 cells; type: cell-based; details: for activity when treatment initiated at 1 hpi: 10 μM, HeLa-ACE2, time course 4 to 24 hpi
[9] = system: SARS-CoV-2; remark: listed apart in the source
[10] = rat, oral; cited from earlier work
[11] = mouse, cited from earlier work
[12] = dog, oral; cited from earlier work
[13] = Pharmacokinetic studies in Syrian hamsters; type: in vivo; details: single 500 mg/kg PO dose, hamster plasma
Method: Pharmacokinetic Studies. Pharmacokinetic studies were conducted at Scripps Research Institute's Animal Models Core in accordance with IACUC guidelines (IACUC Protocol #09-0004-5). Eight-week old male Syrian Hamsters (Charles River) (three per group) were dosed PO as indicated for each compound and formulation. Plasma concentration of each test article was monitored up to 48 h. Nelfinavir was formulated in 10% DMSO/90% corn oil and MK-4482 was formulated in 10% PEG400/2.5% Cremaphor RH40 for both pharmacokinetic and efficacy studies.

[14] = system: SARS-CoV-2; experiment: Golden Syrian Hamster SARS-CoV-2 efficacy model; type: in vivo; details: for live viral titers in the lungs: day 5, plaque assay
[15] = COVID-19 patients; shortened from 15; cited from earlier work
[16] = in vivo; cited from earlier work
[17] = system: SARS-CoV-2; experiment: microbe, parasite or virus in culture; details: Severe acute respiratory syndrome coronavirus 2, Calu-3, read-out: Calu-3 SARS-CoV-2 EC50
[18] = system: HeLa-ACE2 cells; details: human
[19] = Severe acute respiratory syndrome coronavirus 2, HeLa-ACE2, 24 h, read-out: CoV-2 EC50 [μM] (Geomeans, n ≥ 2)
[20] = Severe acute respiratory syndrome coronavirus 2, HeLa-ACE2, read-out: SARS CoV-2 EC50 (μM)
[21] = Severe acute respiratory syndrome coronavirus 2, HeLa-ACE2, read-out: SARS-CoV-2 EC50
[22] = CC50 [μM] (Geomeans, n ≥ 2 except where indicated: *n = 1)

Row | Compound | Cmax [1] | t1/2 [1] | HeLa-ACE2 CC50/CoV-2 EC50 [2] | viral replication in ALI-HBECs [3] | EC50 [4] | EC50 [5, 19] | EC50 [5, 20] | CC50 [6, 22] | CC50 ([6]; Uninfected HeLa-ACE2 CC50 (μM)) | Synergy score with remdesivir (δ) ([7]; Table 3) | activity when treatment initiated at 1 hpi [8] | activity in Calu-3 infection assay [9] | also measured
1 | Cc1cccc(/C=N/Nc2cc(N3CCOCC3)nc(OCCc3ccccn3)n2)c1 [Apilimod] | ~600 nM | ~3 h (human, oral)(27) | >4353.33 | did not | > 9.6 µM | < 0.006 µM | < 0.006 µM | > 27.8 µM | > 27.8 µM | 3.57 | Loss of activity | not active | increase in EC50 from MOI=1 to MOI=26 [2]: 3.7 fold; EC50 [5, 21]: 0.184 µM; CC50 ([6]; uninfected HeLa-ACE2 CC50): > 40 µM; interaction with remdesivir [7]: additive; classification as entry inhibitor in HeLa-ACE2 cells [8]: entry inhibitors
2 | COc1cc(-n2cnc3cc(-c4ccc(Cl)cc4)sc3c2=O)ccc1OCCN1CCCC1 [GW-803430] |  |  | 11.16 |  |  | 1.7 µM |  | 18.9 µM |  |  |  |  | Cmax [10]: ~585 nM; t1/2 [11]: ~11 h (mouse)(38)
3 | O=S(=O)(Nc1ccc(CCNC[C@H](O)c2cccnc2)cc1)c1ccc(-c2nc(-c3ccc(C(F)(F)F)cc3)cs2)cc1 [L 796568] |  |  | 5.28 |  | 3.14 µM | 1.04 µM | 1.04 µM | 5.51 µM | 5.51 µM |  |  |  | Cmax [12]: ~300 nM; t1/2 [12]: ~14 h (dog, oral)(32)
4 | CC(C)C(=O)OC[C@H]1O[C@@H](n2ccc(NO)nc2=O)[C@H](O)[C@@H]1O [MK-4482/EIDD-2801/Molnupiravir, Molnupiravir] |  |  | >4.21 |  |  | > 9.45 µM |  | > 39.8 µM |  |  |  |  | activity in HeLa-ACE2 infection assay [2]: not active; time over HeLa-ACE2 and Calu-3 EC50 [13]: ≥ 7 h; viral reduction compared to vehicle control ([14]; 50 mg/kg PO BID, day 5): 99%; live viral titers in the lungs ([14]; 150 mg/kg PO BID): undetectable; host immune response (RNA Seq on hamster lungs) ([14]; 500 mg/kg PO BID): near-complete protection from host immune response; live viral titers in the lungs ([14]; 500 mg/kg PO BID): undetectable; lung histological examination ([14]; MK-4482-treated hamsters vs vehicle): protected
5 | CCC(CC)COC(=O)[C@H](C)N[P@](=O)(OC[C@H]1O[C@@](C#N)(c2ccc3c(N)ncnn23)[C@H](O)[C@@H]1O)Oc1ccccc1 [Remdesivir] | ~5000 nM | ~1 h (human oral)(15) | 78.7 | inhibited viral replication | > 9.6 µM | 0.127 µM | 0.127 µM |  | > 8.46 µM |  | effectively blocked the infection |  | median time to recovery [15]: 11 days; mortality of hospitalized COVID-19 patients [16]: failed to reduce mortality; increase in EC50 from MOI=1 to MOI=26 [2]: 2.7 fold; EC50 ([2]; read-out: SARS-CoV-2 EC50): 300 nM; EC50 [17]: 444 nM; EC50 [5, 21]: 0.194 ± 0.02 µM; CC50 [18]: 9.97 µM; CC50 ([6]; uninfected HeLa-ACE2 CC50): > 40 µM
6 | CCN1CCC(c2cc(C)c3nc(-c4cc5c(C)nc(C)cn5n4)cc(=O)n3c2)CC1 [SMN-C3] |  |  | 5.12 |  | > 8.14 µM | 1.4 µM | 1.4 µM | 7.16 µM | 7.16 µM | −0.37 |  |  | Cmax ([11]; oral): ~2000 nM; Synergy score with remdesivir (δ) ([7]; Table 1, ZIP model, δ>10 synergy, δ<−10 antagonism, between additive): −0.365
7 | CCN(CCO)CCCC(C)Nc1ccnc2cc(Cl)ccc12 (centres unmarked) [hydroxychloroquine, nasal, hydroxychloroquine] | ~1700 nM | ~55 h (human oral)(18) | >40.04 |  |  | 0.458 µM | 0.458 µM | > 18.3 µM | > 18.3 µM | −1.572 | Loss of activity | not active | mortality of hospitalized COVID-19 patients [16]: failed to reduce mortality; classification as entry inhibitor in HeLa-ACE2 cells [8]: entry inhibitors
8 | N=C(N)c1ccc2cc(OC(=O)c3ccc(N=C(N)N)cc3)ccc2c1 [nafamostat mesylate] |  |  |  | inhibited viral replication |  |  |  |  |  |  |  | active | activity in HeLa-ACE2 infection assay ([2]; text b101-b103): not active
9 | Cc1c(O)cccc1C(=O)N[C@@H](CSc1ccccc1)[C@H](O)CN1C[C@H]2CCCC[C@H]2C[C@H]1C(=O)NC(C)(C)C [nelfinavir] |  |  |  |  |  |  |  |  |  |  |  |  | time over Calu-3 SARS-CoV-2 EC50 [13]: ~3 h; protection from weight loss and viral replication ([14]; 500 mg/kg PO BID): failed to protect animals from weight loss and viral replication
